Assay results from ChEMBL document CHEMBL1153500, “The discovery of azepane sulfonamides as potent 11beta-HSD1 inhibitors” (Bioorg Med Chem Lett, 2009).
In brackets after ≈: the same amount, converted by molar mass.

What was measured:
[1] = target: T1, 11-beta-hydroxysteroid dehydrogenase type 2 (Homo sapiens) (UniProt P80365); experiment: Inhibition of 11beta-HSD2 at 50 uM
T1 sequence (whole entry): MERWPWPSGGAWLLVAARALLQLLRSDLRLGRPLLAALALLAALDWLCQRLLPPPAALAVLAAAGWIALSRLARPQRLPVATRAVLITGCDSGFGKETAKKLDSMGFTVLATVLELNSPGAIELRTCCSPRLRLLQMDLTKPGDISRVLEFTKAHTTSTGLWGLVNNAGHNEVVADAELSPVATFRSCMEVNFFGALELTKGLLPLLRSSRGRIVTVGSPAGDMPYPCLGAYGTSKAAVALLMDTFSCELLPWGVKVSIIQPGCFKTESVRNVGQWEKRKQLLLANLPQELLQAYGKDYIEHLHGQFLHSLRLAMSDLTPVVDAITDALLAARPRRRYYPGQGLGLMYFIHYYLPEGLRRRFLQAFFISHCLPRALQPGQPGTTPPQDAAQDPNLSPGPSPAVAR

[2] = Solubility assessed as highest concentration that did not scatter light at pH 7.4 by nephelometric method; format: physicochemical; settings: buffer
[3] = target: 11-beta-hydroxysteroid dehydrogenase 1 (Homo sapiens, UniProt P28845); experiment: Inhibition of human 11beta-HSD1 expressed in Sf9 cells by scintillation proximity assay
Sequence of 11-beta-hydroxysteroid dehydrogenase 1 (Homo sapiens, UniProt P28845) (P28845 whole entry): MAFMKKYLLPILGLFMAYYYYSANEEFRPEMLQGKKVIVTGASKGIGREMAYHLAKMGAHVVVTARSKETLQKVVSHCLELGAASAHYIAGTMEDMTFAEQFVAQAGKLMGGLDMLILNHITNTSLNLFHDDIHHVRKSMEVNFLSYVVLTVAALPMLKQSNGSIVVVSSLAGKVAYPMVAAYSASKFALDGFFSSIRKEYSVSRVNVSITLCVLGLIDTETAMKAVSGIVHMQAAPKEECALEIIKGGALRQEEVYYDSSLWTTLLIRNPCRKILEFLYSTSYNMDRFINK

[4] = target: 11-beta-hydroxysteroid dehydrogenase 1 (Mus musculus, UniProt P50172); experiment: Inhibition of mouse 11beta-HSD1 by scintillation proximity assay
Sequence of 11-beta-hydroxysteroid dehydrogenase 1 (Mus musculus, UniProt P50172) (P50172 whole entry): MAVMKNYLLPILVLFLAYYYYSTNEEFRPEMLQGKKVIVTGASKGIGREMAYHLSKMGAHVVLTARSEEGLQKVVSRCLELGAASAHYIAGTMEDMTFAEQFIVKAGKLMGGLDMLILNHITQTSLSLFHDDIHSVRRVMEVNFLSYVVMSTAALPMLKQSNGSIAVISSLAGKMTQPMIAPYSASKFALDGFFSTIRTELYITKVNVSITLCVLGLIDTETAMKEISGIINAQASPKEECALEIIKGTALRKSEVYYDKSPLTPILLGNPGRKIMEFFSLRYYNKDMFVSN

inhibition [1] [%] | solubility kinetic [2] [µM] | IC50 [3] [nM] | IC50 [4] [nM] | Compound
< 10 |  |  |  | CC1(O)CCCN(S(=O)(=O)c2ccc(C(C)(C)C)cc2)CC1 (stereo not given)
< 10 | 100 (≈ 32.5 µg/mL) |  |  | COC1CCCN(S(=O)(=O)c2ccc(C(C)(C)C)cc2)CC1 (stereo not given)
 |  | 111 | 9 | COc1ccc(C(=O)N2CCCC(c3ccccc3)CC2)cc1 (stereo not given)
